Results from patent publication US20250179083A1, “TRICYCLIC TRIAZOLO COMPOUNDS AS DGK INHIBITORS” (Incyte Corporation, priority 2023, published 2025).

Columns and labels:
[1] = biological target: T1, DGKα (Homo sapiens, UniProt P23743); assay: In vitro DGKα inhibition assay (ADP-Glo); format: biochemical; settings: His-tagged human recombinant DGKα 0.1 nM, 50 μM ATP, 20 μM DLG, 90 minute incubation
T1 construct: His; purchased Signal Chem D21-10BH
Experimental: (§1) The DGKα and DGKζ biochemical reactions were performed using His-tagged human recombinant enzymes (Signal Chem, DGKα, #D21-10BH; DGKζ, #D30-10H)) and DLG (Dilauroyl-sn-glycerol) lipid substrate (Signal Chem, #D430-59). ADP-Glo assay was performed using ADP-Glo™ kinase Assay kit (Promega, #V9104). The reactions were carried out in assay buffer containing 40 mM Tris, pH 7.5, 0.1% CHAPS, 0.1% Prionex, 40 mM NaCl, 5 mM MgCl2, 1 mM CaCl2, and 1 mM DTT. DGKα reactions contained 0.1 nM DGKα, 50 μM ATP, and 20 μM DLG. And DGKζ reactions contained 0.4 nM DGKζ, 30 μM ATP, and 20 μM DLG.
(§2) Compounds were added with top concentration of 2 mM with 11 point, 3-fold dilution series. Enzyme solution (contains 2×DGK enzyme concentration in 1× assay buffer) was added to the plate in 2 μL/well volume, followed by 2 μL/well of substrate solution (contains 2× concentration of ATP and DLG substrate in 1× assay buffer). Plates were then centrifuged for 1 min at 1200 RPM and sealed or lidded. For 4 μL reaction volume, test compounds were therefore diluted 100× to final top concentration of 20 μM. After 90 minute incubation, reactions were quenched by addition of 2 μL/well Promega ADP-Glo Reagent, followed by centrifugation and lidding. After 60 min incubation, 2 μL/well Promega Kinase Detection Reagent was added, plates centrifuged, and incubated for 30 min. Plates were then read using Luminescence method on BMG PHERAstar FSX plate reader. Percent inhibition was calculated and IC50s were determined using 4-parameter fit in Genedata Screener. Labcyte Echo acoustic dispenser was used for compound addition, and Formulatrix Tempest liquid handler was used for all reagent dispenses.

[2] = biological target: T2, DGKζ (Homo sapiens, UniProt Q13574); assay: In vitro DGKζ inhibition assay (ADP-Glo); format: biochemical; settings: His-tagged human recombinant DGKζ 0.4 nM, 30 μM ATP, 20 μM DLG, 90 minute incubation
T2 construct: His; purchased Signal Chem D30-10H
Experimental: as §1, §2

T2 sequence (Q13574 whole entry): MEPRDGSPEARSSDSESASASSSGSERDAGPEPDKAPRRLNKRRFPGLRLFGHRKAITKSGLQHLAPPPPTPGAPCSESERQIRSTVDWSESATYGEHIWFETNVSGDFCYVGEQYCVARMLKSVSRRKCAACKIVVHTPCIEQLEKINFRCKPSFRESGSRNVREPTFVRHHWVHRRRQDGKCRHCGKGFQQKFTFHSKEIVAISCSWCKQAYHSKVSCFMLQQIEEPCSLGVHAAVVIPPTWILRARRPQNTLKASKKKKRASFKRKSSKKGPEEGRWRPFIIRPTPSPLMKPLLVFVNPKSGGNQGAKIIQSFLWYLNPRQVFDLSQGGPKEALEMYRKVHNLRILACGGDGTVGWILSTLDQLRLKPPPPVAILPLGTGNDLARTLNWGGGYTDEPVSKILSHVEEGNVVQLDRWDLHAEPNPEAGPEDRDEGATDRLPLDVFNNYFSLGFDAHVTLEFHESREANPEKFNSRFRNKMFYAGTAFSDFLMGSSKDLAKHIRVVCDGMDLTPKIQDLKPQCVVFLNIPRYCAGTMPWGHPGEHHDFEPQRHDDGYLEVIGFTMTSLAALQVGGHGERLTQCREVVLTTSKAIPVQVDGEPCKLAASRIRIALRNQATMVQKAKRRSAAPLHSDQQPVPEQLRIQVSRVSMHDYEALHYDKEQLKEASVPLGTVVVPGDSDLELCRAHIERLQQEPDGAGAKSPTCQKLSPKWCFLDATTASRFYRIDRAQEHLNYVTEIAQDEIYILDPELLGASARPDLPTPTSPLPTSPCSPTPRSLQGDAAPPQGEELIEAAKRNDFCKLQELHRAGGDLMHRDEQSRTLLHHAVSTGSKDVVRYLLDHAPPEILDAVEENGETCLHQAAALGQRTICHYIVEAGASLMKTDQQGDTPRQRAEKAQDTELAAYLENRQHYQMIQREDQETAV
T1 sequence (P23743 whole entry): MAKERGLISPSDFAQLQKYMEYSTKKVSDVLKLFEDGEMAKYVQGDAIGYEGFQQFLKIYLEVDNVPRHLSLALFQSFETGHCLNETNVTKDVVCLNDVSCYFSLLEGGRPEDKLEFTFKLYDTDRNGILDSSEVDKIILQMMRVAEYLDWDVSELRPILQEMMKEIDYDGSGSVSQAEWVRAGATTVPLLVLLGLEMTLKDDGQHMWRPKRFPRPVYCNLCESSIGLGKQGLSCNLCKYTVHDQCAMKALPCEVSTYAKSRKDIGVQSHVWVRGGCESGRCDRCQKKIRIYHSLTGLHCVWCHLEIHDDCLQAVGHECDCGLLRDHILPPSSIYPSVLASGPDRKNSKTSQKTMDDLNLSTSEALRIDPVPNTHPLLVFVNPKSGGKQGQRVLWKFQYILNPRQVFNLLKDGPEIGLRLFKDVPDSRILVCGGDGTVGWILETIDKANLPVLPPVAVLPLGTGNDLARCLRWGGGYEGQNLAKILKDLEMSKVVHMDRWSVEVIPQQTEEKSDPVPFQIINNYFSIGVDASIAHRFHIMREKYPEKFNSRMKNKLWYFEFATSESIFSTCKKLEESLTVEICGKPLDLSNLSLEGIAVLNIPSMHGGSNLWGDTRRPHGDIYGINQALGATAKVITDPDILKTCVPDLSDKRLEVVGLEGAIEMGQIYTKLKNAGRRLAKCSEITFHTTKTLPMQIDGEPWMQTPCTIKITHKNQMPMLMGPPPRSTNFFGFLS

| SMILES | IC50 [1] | IC50 [2] |
| --- | --- | --- |
| Cc1nc2c(N3C[C@@H](C)N(C(c4ccc(Cl)cc4)[C@@H]4CC4(F)F)C[C@@H]3C)nc3nncn3c2n1C[C@@H]1CCCO1 (single isomer, unassigned) [Example 8] | < 20 nM | < 20 nM |
| CC(C)CC(c1ccc(Cl)cc1)N1C[C@H](C)N(c2nc3nncn3c3c2ncn3C[C@@H]2CCCO2)C[C@H]1C (single isomer, unassigned) [Example 9] | < 20 nM | < 20 nM |
| CC(CC(c1ccc(Cl)cc1)N1C[C@H](C)N(c2nc3nncn3c3c2ncn3C[C@@H]2CCCO2)C[C@H]1C)C(F)(F)F (single isomer, unassigned) [Example 12] | < 20 nM | < 20 nM |
| CC(C)CC(c1ccc(Cl)c(F)c1)N1C[C@H](C)N(c2nc3nncn3c3c2ncn3C[C@@H]2CCCO2)C[C@H]1C (single isomer, unassigned) [Example 15] | < 20 nM | < 20 nM |
| CC(CC(c1ccc(Cl)c(F)c1)N1C[C@H](C)N(c2nc3nncn3c3c2ncn3C[C@@H]2CCCO2)C[C@H]1C)C(F)(F)F (single isomer, unassigned) [Example 17] | < 20 nM | < 20 nM |
| C[C@@H]1CN(c2nc3nncn3c3c2ncn3C[C@@H]2CCCO2)[C@@H](C)CN1[C@@H](c1ccc(Cl)cc1)c1ccc(Cl)cn1 (single isomer, unassigned) [Example 21] | < 20 nM | < 20 nM |
| Cc1nc2c(N3C[C@@H](C)N(C(c4ccc(C(F)(F)F)cc4)C4CC(F)(F)C4)C[C@@H]3C)cc3nncn3c2n1C[C@@H]1CCCO1 (single isomer, unassigned) [Example 49] | < 20 nM | < 20 nM |
| C[C@@H]1CN(c2cc3nncn3c3c2ncn3C[C@@H]2CCCO2)[C@@H](C)CN1C(c1ccc(Cl)cc1)[C@@H]1CC1(F)F (single isomer, unassigned) [Example 50] | < 20 nM | 20 to 200 nM |
| CC[C@@H]1CN(c2cc3nncn3c3c2nc(C)n3C[C@@H]2CCCO2)[C@@H](C)CN1C(c1ccc(Cl)cc1)C1CC(F)(F)C1 (single isomer, unassigned) [Example 52] | < 20 nM | < 20 nM |
| Cc1nc2c(N3C[C@@H](C)N(C(c4ccc(C(F)F)cc4F)C4CC(F)(F)C4)C[C@@H]3C)nc3nncn3c2n1C[C@@H]1CCCO1 (stereo partly drawn) [Example 3, 4-((2S,5R)-4-((3,3-Difluorocyclobutyl)(4-(difluoromethyl)-2-fluorophenyl)methyl)-2,5-dimethylpiperazin-1-yl)-2-methyl-1-(((S)-tetrahydrofuran-2-yl)methyl)-1H-[1,2,4]triazolo[3,4-b]purine] | < 20 nM | < 20 nM |
| Cc1nc2c(N3C[C@@H](C)N(C(c4ccc(C(F)(F)F)cc4F)C4CC(F)(F)C4)C[C@@H]3C)nc3nncn3c2n1C[C@@H]1CCCO1 (stereo partly drawn) [Example 4, 4-((2S,5R)-4-((3,3-Difluorocyclobutyl)(2-fluoro-4-(trifluoromethyl)phenyl)methyl)-2,5-dimethylpiperazin-1-yl)-2-methyl-1-(((S)-tetrahydrofuran-2-yl)methyl)-1H-[1,2,4]triazolo[3,4-b]purine] | < 20 nM | < 20 nM |
| Cc1nc2c(N3C[C@@H](C)N(C(c4ccc(Cl)cc4F)C4CC(F)(F)C4)C[C@@H]3C)nc3nncn3c2n1C[C@@H]1CCCO1 (stereo partly drawn) [Example 5, 4-((2S,5R)-4-((4-Chloro-2-fluorophenyl)(3,3-difluorocyclobutyl)methyl)-2,5-dimethylpiperazin-1-yl)-2-methyl-1-(((S)-tetrahydrofuran-2-yl)methyl)-1H-[1,2,4]triazolo[3,4-b]purine] | < 20 nM | < 20 nM |
| C[C@@H]1CN(c2nc3nncn3c3c2ncn3C[C@@H]2CCCO2)[C@@H](C)CN1C(c1ccc(Cl)cc1)C1CC1 (stereo partly drawn) [Example 10, 4-((2S,5R)-4-((4-Chlorophenyl)(cyclopropyl)methyl)-2,5-dimethylpiperazin-1-yl)-1-(((S)-tetrahydrofuran-2-yl)methyl)-1H-[1,2,4]triazolo[3,4-b]purine] | < 20 nM | < 20 nM |

Continued, values first:

| IC50 [1] | IC50 [2] | SMILES |
| --- | --- | --- |
| < 20 nM | < 20 nM | C[C@@H]1CN(c2nc3nncn3c3c2ncn3C[C@@H]2CCCO2)[C@@H](C)CN1C(c1ccc(C(F)(F)F)cc1)C1CC(F)(F)C1 (single isomer, unassigned) [Example 1] |
| < 20 nM | < 20 nM | C[C@@H]1CN(c2nc3nncn3c3c2ncn3C[C@@H]2CCCO2)[C@@H](C)CN1C(c1ccc(Cl)cc1)[C@@H]1CC1(F)F (single isomer, unassigned) [Example 6] |
| < 20 nM | < 20 nM | C[C@@H]1CN(c2nc3nncn3c3c2ncn3C[C@@H]2CCCO2)[C@@H](C)CN1C(c1ccc(Cl)cc1)[C@H]1CC1(F)F (single isomer, unassigned) [Example 7] |
| < 20 nM | < 20 nM | C[C@@H]1CN(c2nc3nncn3c3c2ncn3C[C@@H]2CCCO2)[C@@H](C)CN1C(C[C@@H](C)C(F)(F)F)c1ccc(Cl)cc1 (single isomer, unassigned) [Example 11] |
| < 20 nM | < 20 nM | C[C@@H]1CN(c2nc3nncn3c3c2ncn3C[C@@H]2CCCO2)[C@@H](C)CN1C(c1ccc(C(F)(F)F)cc1)[C@@H]1CC1(F)F (single isomer, unassigned) [Example 13] |
| < 20 nM | < 20 nM | CC(C)CC(c1ccc(C(F)(F)F)cc1)N1C[C@H](C)N(c2nc3nncn3c3c2ncn3C[C@@H]2CCCO2)C[C@H]1C (single isomer, unassigned) [Example 14] |
| < 20 nM | < 20 nM | C[C@@H]1CN(c2nc3nncn3c3c2ncn3C[C@@H]2CCCO2)[C@@H](C)CN1C(C[C@@H](C)C(F)(F)F)c1ccc(Cl)c(F)c1 (single isomer, unassigned) [Example 16] |
| < 20 nM | < 20 nM | Cc1nc2c(N3C[C@@H](C)N(C(CC(C)C)c4ccc(Cl)c(F)c4)C[C@@H]3C)nc3nncn3c2n1C[C@@H]1CCCO1 (single isomer, unassigned) [Example 18] |
| < 20 nM | < 20 nM | C[C@@H]1CN(c2nc3nncn3c3c2ncn3C[C@@H]2CCCO2)[C@@H](C)CN1[C@H](c1ccc(Cl)cc1)c1ccc(Cl)cn1 (single isomer, unassigned) [Example 22] |
| < 20 nM | < 20 nM | Cc1nc2c(N3C[C@@H](C)N(C(c4ccc(Cl)c(F)c4)C(C)C)C[C@@H]3C)nc3nncn3c2n1C[C@@H]1CCCO1 (single isomer, unassigned) [Example 23] |
| < 20 nM | < 20 nM | CC(C)CC(c1ccc(Cl)cc1)N1C[C@H](C)N(c2cc3nncn3c3c2ncn3C[C@@H]2CCCO2)C[C@H]1C (single isomer, unassigned) [Example 51] |
| < 20 nM | < 20 nM | Cc1nc2c(N3C[C@@H](C)N(C(CC(C)C)c4ccc(Cl)cc4)C[C@@H]3C)nc3nncn3c2n1C[C@@H]1CCCO1 (single isomer, unassigned) [Example 53] |
| < 20 nM | < 20 nM | Cc1nc2c(N3C[C@@H](C)N([C@H](c4ccc(Cl)cc4)[C@H]4CC4(F)F)C[C@@H]3C)nc3nncn3c2n1C[C@@H]1CCCO1 (single isomer, unassigned) [Example 55] |
| < 20 nM | < 20 nM | Cc1nc2c(N3C[C@@H](C)N([C@@H](c4ccc(Cl)cc4)[C@H]4CC4(F)F)C[C@@H]3C)nc3nncn3c2n1C[C@@H]1CCCO1 (single isomer, unassigned) [Example 56] |
| < 20 nM | < 20 nM | C[C@@H]1CN(c2cc3nncn3c3c2ncn3C[C@@H]2CCCO2)[C@@H](C)CN1C(c1ccc(Cl)cc1)C1CC(F)(F)C1 (single isomer, unassigned) [Example 61] |
| < 20 nM | < 20 nM | Cc1nc2c(N3C[C@@H](C)N(C(c4ccc(Cl)cc4)C4CC(F)(F)C4)C[C@@H]3C)cc3nncn3c2n1C[C@@H]1CCCO1 (single isomer, unassigned) [Example 62] |
| < 20 nM | < 20 nM | C[C@@H]1CN(c2nc3nncn3c3c2ncn3C[C@@H]2CCCO2)[C@@H](C)CN1C(c1ccc(C(F)F)c(F)c1)C1CC(F)(F)C1 (stereo partly drawn) [Example 2, 4-((2S,5R)-4-((3,3-Difluorocyclobutyl)(4-(difluoromethyl)-3-fluorophenyl)methyl)-2,5-dimethylpiperazin-1-yl)-1-(((S)-tetrahydrofuran-2-yl)methyl)-1H-[1,2,4]triazolo[3,4-b]purine] |
| < 20 nM | < 20 nM | C[C@@H]1CN(c2nc3nncn3c3c2ncn3C[C@@H]2CCCO2)[C@@H](C)CN1C(c1ccc(C(F)(F)F)cn1)c1ccc(C(F)(F)F)cn1 [Example 19, 4-((2S,5R)-4-(Bis(5-(trifluoromethyl)pyridin-2-yl)methyl)-2,5-dimethylpiperazin-1-yl)-1-(((S)-tetrahydrofuran-2-yl)methyl)-1H-[1,2,4]triazolo[3,4-b]purine] |
